Tests used:
Test in all cases: Chemoproteomic competition pulldown assay (co-competed CoREST partner)
Type in all cases: binding
[1] = tested on: HMG20B; conditions: iL, MV4-11 lysate
Experimental: (§1) To identify proteins directly bound by lipoic acid, we employed a chemoproteomic competition assay. Briefly, (R/S)-LA was immobilized on sepharose beads via an amidation reaction to form an affinity matrix (abbreviated as iL; Fig. 1a). This affinity matrix can be incubated with cell lysate to pull down potential LA or LM target proteins and identify these targets via bottom-up proteomics. In a competition assay, free LA or LM were incubated with lysate at different concentrations before pulling down and quantifying target proteins. […] (Fig. 1b, see “Methods” for details). […] The lysate buffer used in this assay contains 1 mM DTT to mimic the intracellular reductive milieu and to reduce lipoic acid and LM. […] Additional competition assays performed in lung adenocarcinoma cell A549 lysate also identified HDAC1, HDAC2, and HDAC6 as targets (Supplementary Fig. 1b). Amongst the three cell lines tested, HDACs were the only confidently identified targets across the 1500–3000 proteins quantified in these assays. […] We validated the results by analogous pulldown competition assays using two other affinity matrices prepared via the immobilization of either the HDAC inhibitor Quisinostat (iQ) and an analog of the class IIa HDAC inhibitor Bürli’s 31[14] (iC)[12]. We have previously shown that these affinity matrices specifically bind to the active sites of HDACs and have used them for HDACi selectivity profiling. Indeed, binding of (R/S)-LA and (R/S)-LM to HDAC1, HDAC2, HDAC3, HDAC6, and, to a lesser extent, HDAC8 was confirmed in these assays (Supplementary Fig. 1c, d). No binding to class IIa HDACs or the recently discovered common HDAC inhibitor off-target MBLAC2 was observed (Supplementary Fig. 1e)[12]. […] This observation might reflect electrostatic repulsion between the HDAC10 active site gate-keeper glutamic acid residues[15],[16] and the terminal carboxylic acid of LA.
(§2) To assess the degree of protein depletion from lysates by the affinity matrix, a second pulldown (PDPD) with fresh beads was performed using the unbound protein fraction from the vehicle control flow through. The beads were washed (1 × 1 mL of lysis buffer without inhibitors and only 0.4% Igepal, 2 × 2 mL of lysis buffer without inhibitors and only 0.2% Igepal), and captured proteins were denatured with 8 M urea buffer, alkylated with 55 mM chloroacetamide and digested with Trypsin according to standard procedures. The resulting peptides were desalted on a C18 filter plate (Sep-Pak® tC18 µElution Plate, Waters), vacuum dried, and stored at −20 °C until LC–MSMS measurement.
(§3) For the competition assays, relative binding was calculated based on the protein intensity ratio to the DMSO control for every single inhibitor concentration. EC50 values were derived from a four-parameter log-logistic regression with variable slope (constrain: bottom > 0). The obtained EC50 values were multiplied with a protein-dependent correction factor (cf), resulting in the apparent Kd value (Kd^app). The correction factor is determined by calculating the ratio of the protein intensity of two consecutive pulldowns of the vehicle control sample[13]. Targets of the inhibitors were annotated manually according to published procedures[12],[46],[47]. […] Additionally, the number of unique peptides and MSMS counts per condition were taken into account. Positive target binding across several independent experiments performed with different cell lysates further substantiated our confidence for a true positive drug-target binding event.

[2] = tested on: HMG20A
Experimental: as §1, §2, §3

[3] = tested on: RCOR1; conditions: iL, MV4-11 lysate
Experimental: as §1, §2, §3

[4] = tested on: KDM1A
Experimental: as §1, §2, §3

[5] = tested on: RCOR3
Experimental: as §1, §2, §3

[6] = iL, MV4-11 lysate, log10 M -3.52288
[7] = iL, MV4-11 lysate, log10 M -4.52288
[8] = iL, MV4-11 lysate, log10 M -5.52288
[9] = iL, MV4-11 lysate, log10 M -6.52288
[10] = iQ, SW620 lysate, log10 M -3.52288
[11] = iQ, SW620 lysate, log10 M -4.52288
[12] = iQ, SW620 lysate, log10 M -5.52288
[13] = iQ, SW620 lysate, log10 M -6.52288

## NC(=O)CCCCC1CCSS1 (racemic) [(R/S)-LM, (R/S)-lipoamide]
[1]; log10 M -3.52288
  relative binding vs DMSO: 0.0242
[1]; log10 M -4
  relative binding vs DMSO: 0.0521
[1]; log10 M -4.52288
  relative binding vs DMSO: 0.1443
[1]; log10 M -5
  relative binding vs DMSO: 0.4724
[1]; log10 M -5.52288
  relative binding vs DMSO: 0.6292
[1]; log10 M -6
  relative binding vs DMSO: 0.8935
[1]; log10 M -6.52288
  relative binding vs DMSO: 0.8513
[1]; log10 M -7
  relative binding vs DMSO: 1.055
[2]; [6]
  relative binding vs DMSO: 0.1398
[2]; iL, MV4-11 lysate, log10 M -4
  relative binding vs DMSO: 0.1277
[2]; [7]
  relative binding vs DMSO: 0.1925
[2]; iL, MV4-11 lysate, log10 M -5
  relative binding vs DMSO: 0.5136
[2]; [8]
  relative binding vs DMSO: 0.6563
[2]; iL, MV4-11 lysate, log10 M -6
  relative binding vs DMSO: 0.8243
[2]; [9]
  relative binding vs DMSO: 0.9555
[2]; iL, MV4-11 lysate, log10 M -7
  relative binding vs DMSO: 1.012
[2]; [10]
  relative binding vs DMSO: 0.03313
[2]; iQ, SW620 lysate, log10 M -4
  relative binding vs DMSO: 0.1846
[2]; [11]
  relative binding vs DMSO: 0.4151
[2]; iQ, SW620 lysate, log10 M -5
  relative binding vs DMSO: 0.6118
[2]; [12]
  relative binding vs DMSO: 0.969
[2]; iQ, SW620 lysate, log10 M -6
  relative binding vs DMSO: 0.8792
[2]; [13]
  relative binding vs DMSO: 0.8032
[2]; iQ, SW620 lysate, log10 M -7
  relative binding vs DMSO: 1.062
[3]; log10 M -3.52288
  relative binding vs DMSO: 0.05785
[3]; log10 M -4
  relative binding vs DMSO: 0.0548
[3]; log10 M -4.52288
  relative binding vs DMSO: 0.1462
[3]; log10 M -5
  relative binding vs DMSO: 0.4201
[3]; log10 M -5.52288
  relative binding vs DMSO: 0.5816
[3]; log10 M -6
  relative binding vs DMSO: 0.5592
[3]; log10 M -6.52288
  relative binding vs DMSO: 0.7783
[3]; log10 M -7
  relative binding vs DMSO: 0.8248
[4]; [6]
  relative binding vs DMSO: 0.06889
[4]; iL, MV4-11 lysate, log10 M -4
  relative binding vs DMSO: 0.07597
[4]; [7]
  relative binding vs DMSO: 0.1867
[4]; iL, MV4-11 lysate, log10 M -5
  relative binding vs DMSO: 0.4972
[4]; [8]
  relative binding vs DMSO: 0.6394
[4]; iL, MV4-11 lysate, log10 M -6
  relative binding vs DMSO: 0.7472
[4]; [9]
  relative binding vs DMSO: 0.8335
[4]; iL, MV4-11 lysate, log10 M -7
  relative binding vs DMSO: 0.9817
[4]; [10]
  relative binding vs DMSO: 0.09916
[4]; iQ, SW620 lysate, log10 M -4
  relative binding vs DMSO: 0.186
[4]; [11]
  relative binding vs DMSO: 0.3209
[4]; iQ, SW620 lysate, log10 M -5
  relative binding vs DMSO: 0.6955
[4]; [12]
  relative binding vs DMSO: 0.8479
[4]; iQ, SW620 lysate, log10 M -6
  relative binding vs DMSO: 0.9866
[4]; [13]
  relative binding vs DMSO: 0.7392
[4]; iQ, SW620 lysate, log10 M -7
  relative binding vs DMSO: 0.6643
[5]; [6]
  relative binding vs DMSO: 0.04482
[5]; iL, MV4-11 lysate, log10 M -4
  relative binding vs DMSO: 0.03145
[5]; [7]
  relative binding vs DMSO: 0.2203
[5]; iL, MV4-11 lysate, log10 M -5
  relative binding vs DMSO: 0.5854
[5]; [8]
  relative binding vs DMSO: 0.7487
[5]; iL, MV4-11 lysate, log10 M -6
  relative binding vs DMSO: 1.237
[5]; [9]
  relative binding vs DMSO: 1.016
[5]; iL, MV4-11 lysate, log10 M -7
  relative binding vs DMSO: 0.9839
[5]; [10]
  relative binding vs DMSO: 0.0548
[5]; iQ, SW620 lysate, log10 M -4
  relative binding vs DMSO: 0.3164
[5]; [11]
  relative binding vs DMSO: 0.4259
[5]; iQ, SW620 lysate, log10 M -5
  relative binding vs DMSO: 0.6647
[5]; [12]
  relative binding vs DMSO: 0.7959
[5]; iQ, SW620 lysate, log10 M -6
  relative binding vs DMSO: 1.1558
[5]; [13]
  relative binding vs DMSO: 0.7323
[5]; iQ, SW620 lysate, log10 M -7
  relative binding vs DMSO: 0.9341
